# In patent US8771665B2 (Cocrystal Discovery, Inc., priority 2010, dated 2014):
# Target: T1, HCV1b NS5B polymerase delta 21 (Hepatitis C virus genotype 1b, UniProt P26663)
# T1 construct: purified HCV1b NS5B polymerase delta 21
# Assay: RNA-Dependent RNA HCV NS5B (Polymerase) Assay and IC50 Determination
# Type: biochemical
# Experimental: RNA-Dependent RNA HCV NS5B (Polymerase) Assay and IC50 Determination
# In vitro RNA-dependent RNA polymerase activity was determined in a reaction mixture (50 μL) containing 50 mM Tris-HCl, pH 7.5, 5 mM MgCl2, 1 mM dithiothreitol, 0.5% Triton® X-100, 10 μM of UTP, 0.1-0.5 μCi of α-^32P UTP (Perkin Elmer Life Sciences), 1 μg of polyA:U16 (Midland Oligo), and 0.6 μg of purified HCV1b NS5B polymerase delta 21. Different concentrations of compounds were added to the reaction mixtures. The reaction was carried out at RT (23° C.) for 60 min and then stopped by the addition of 100 μL of 50 mM EDTA. The reaction mixtures were filtered through either a DE81 membrane or a positively charged nylon membrane, and the membranes were then extensively washed with 30 mM sodium citrate, pH 7.0 and 300 mM NaCl. The radiolabeled RNA products were quantitated using a Storm™ Phosphorlmager™ (GE Life Sciences). IC50 values were calculated using GraFit 6 and GraphPad Prism 5 from triplicate assays.
# T1 sequence (P26663 2420-2989): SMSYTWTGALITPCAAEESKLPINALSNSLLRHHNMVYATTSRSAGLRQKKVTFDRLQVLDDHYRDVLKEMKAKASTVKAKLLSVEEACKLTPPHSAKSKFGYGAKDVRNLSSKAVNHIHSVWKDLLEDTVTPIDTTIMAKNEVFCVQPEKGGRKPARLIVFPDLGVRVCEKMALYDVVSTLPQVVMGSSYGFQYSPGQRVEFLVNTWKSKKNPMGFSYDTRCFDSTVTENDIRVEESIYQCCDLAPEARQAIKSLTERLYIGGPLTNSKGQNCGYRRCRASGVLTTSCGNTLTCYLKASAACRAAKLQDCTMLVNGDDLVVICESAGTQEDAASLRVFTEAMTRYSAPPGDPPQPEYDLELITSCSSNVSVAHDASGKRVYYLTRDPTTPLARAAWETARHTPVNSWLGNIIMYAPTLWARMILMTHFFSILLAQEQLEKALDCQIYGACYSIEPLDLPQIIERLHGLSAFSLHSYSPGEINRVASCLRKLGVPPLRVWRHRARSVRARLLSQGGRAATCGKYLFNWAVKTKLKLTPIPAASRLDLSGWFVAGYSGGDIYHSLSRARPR
row,SMILES,IC50 [µM]
1,"CC1CCC(C2=C(c3cc(I)sc3C(=O)O)CNCC2)CC1 (stereo not shown) [Example 171, 5-Iodo-3-[4-(4-methyl-cyclohexyl)-1,2,5,6-tetrahydro-pyridin-3-yl]-thiophene-2-carboxylic acid]",> 10
2,"CC1CCC(C2=C(c3cc(-c4ccccc4)sc3C(=O)O)CCN(Cc3ccnc(-c4cccs4)c3)C2)CC1 (stereo not shown) [Example 145, 3-[5-(4-Methyl-cyclohexyl)-1-(2-thiophen-2-yl-pyridin-4-ylmethyl)-1,2,3,6-tetrahydro-pyridin-4-yl]-5-phenyl-thiophene-2-carboxylic acid]",> 10
3,"CC1CCC(C2=C(c3cc(C#CC(C)(C)C)sc3C(=O)O)CCN(Cc3c(C(F)(F)F)nn(C)c3Cl)C2)CC1 (stereo not shown) [Example 136, 3-[1-(5-Chloro-1-methyl-3-trifluoromethyl-1H-pyrazol-4-ylmethyl)-5-(4-methyl-cyclohexyl)-1,2,3,6-tetrahydro-pyridin-4-yl]-5-(3,3-dimethyl-but-1-ynyl)-thiophene-2-carboxylic acid]",> 10
4,"CC1CCC(C2=C(c3cc(-c4ccccc4)sc3C(=O)O)CCN(Cc3ccc(Cl)cc3)C2)CC1 (stereo not shown) [Example 086, 3-[1-(4-Chloro-benzyl)-5-(4-methyl-cyclohexyl)-1,2,3,6-tetrahydro-pyridin-4-yl]-5-phenyl-thiophene-2-carboxylic acid]",3 to 10
5,"CCN1CCC(c2cc(-c3ccc(NC(=O)c4cc[nH]n4)cc3)sc2C(=O)O)=C(C2CCC(C)CC2)C1 (stereo not shown) [Example 055, 3-[1-Ethyl-5-(4-methyl-cyclohexyl)-1,2,3,6-tetrahydro-pyridin-4-yl]-5-{4-[(1H-pyrazole-3-carbonyl)-amino]-phenyl}-thiophene-2-carboxylic acid]",< 3
6,"CCN1CCC(c2cc(-c3cccc(N)c3)sc2C(=O)O)=C(C2CCC(C)CC2)C1 (stereo not shown) [Example 026, 5-(3-Amino-phenyl)-3-[1-ethyl-5-(4-methyl-cyclohexyl)-1,2,3,6-tetrahydro-pyridin-4-yl]-thiophene-2-carboxylic acid]",3 to 10
7,"CCN1CCC(c2cc(-c3ccc(NC(=O)c4cc(C)on4)cc3)sc2C(=O)O)=C(C2CCC(C)CC2)C1 (stereo not shown) [Example 053, 3-[1-Ethyl-5-(4-methyl-cyclohexyl)-1,2,3,6-tetrahydro-pyridin-4-yl]-5-{4-[(5-methyl-isoxazole-3-carbonyl)-amino]-phenyl}-thiophene-2-carboxylic acid]",3 to 10
8,"CC1CCC(C2=C(c3cc(C#CC4(C)CC4)sc3C(=O)O)CCN(C)C2)CC1 (stereo not shown) [Example 172, 5-(1-Methyl-cyclopropylethynyl)-3-[1-methyl-5-(4-methyl-cyclohexyl)-1,2,3,6-tetrahydro-pyridin-4-yl]-thiophene-2-carboxylic acid]",< 3
9,"CCN1CCC(c2cc(-c3ccc(NC(=O)c4cc(C)n(C)n4)cc3)sc2C(=O)O)=C(C2CCC(C)CC2)C1 (stereo not shown) [Example 051, 5-{4-[(1,5-Dimethyl-1H-pyrazole-3-carbonyl)-amino]-phenyl}-3-[1-ethyl-5-(4-methyl-cyclohexyl)-1,2,3,6-tetrahydro-pyridin-4-yl]-thiophene-2-carboxylic acid]",< 3
10,"CC1CCC(C2=C(c3cc(C#CC(C)(C)C)sc3C(=O)O)CNCC2)CC1 (stereo not shown) [Example 111, 5-(3,3-Dimethyl-but-1-ynyl)-3-[4-(4-methyl-cyclohexyl)-1,2,5,6-tetrahydro-pyridin-3-yl]-thiophene-2-carboxylic acid]",< 3
11,"CCCC(C)C#Cc1cc(C2=C(C3CCC(C)CC3)CN(CC)CC2)c(C(=O)O)s1 (stereo not shown) [Example 030, 3-[1-Ethyl-5-(4-methyl-cyclohexyl)-1,2,3,6-tetrahydro-pyridin-4-yl]-5-(3-methyl-hex-1-ynyl)-thiophene-2-carboxylic acid]",> 10
12,"CC1CCC(C2=C(c3cc(-c4ccccc4)sc3C(=O)O)CCN(C(=O)Cc3ccncc3)C2)CC1 (stereo not shown) [Example 093, 3-[5-(4-Methyl-cyclohexyl)-1-(2-pyridin-4-yl-acetyl)-1,2,3,6-tetrahydro-pyridin-4-yl]-5-phenyl-thiophene-2-carboxylic acid]",> 10
13,"CC1CCC(C2=C(c3cc(-c4ccccc4)sc3C(=O)O)CCN(C(=O)c3ccc(C(F)(F)F)nc3)C2)CC1 (stereo not shown) [Example 154, 3-[5-(4-Methyl-cyclohexyl)-1-(6-trifluoromethyl-pyridine-3-carbonyl)-1,2,3,6-tetrahydro-pyridin-4-yl]-5-phenyl-thiophene-2-carboxylic acid]",< 3
14,"CCN1CCC(c2cc(-c3ccc(NC(=O)c4nccs4)cc3)sc2C(=O)O)=C(C2CCC(C)CC2)C1 (stereo not shown) [Example 066, 3-[1-Ethyl-5-(4-methyl-cyclohexyl)-1,2,3,6-tetrahydro-pyridin-4-yl]-5-{4-[(thiazole-2-carbonyl)-amino]-phenyl}-thiophene-2-carboxylic acid]",< 3
15,"CC1CCC(C2=C(c3cc(-c4ccc(NC(=O)c5cscn5)cc4)sc3C(=O)O)CN(C)CC2)CC1 (stereo not shown) [Example 167, 3-[1-Methyl-4-(4-methyl-cyclohexyl)-1,2,5,6-tetrahydro-pyridin-3-yl]-5-{4-[(thiazole-4-carbonyl)-amino]-phenyl}-thiophene-2-carboxylic acid]",< 3
16,"CC1CCC(C2=C(c3cc(-c4ccccc4)sc3C(=O)O)CCN(Cc3cn(C)c4ccccc34)C2)CC1 (stereo not shown) [Example 095, 3-[5-(4-Methyl-cyclohexyl)-1-(1-methyl-1H-indol-3-ylmethyl)-1,2,3,6-tetrahydro-pyridin-4-yl]-5-phenyl-thiophene-2-carboxylic acid]",3 to 10
17,"CC1CCC(C2=C(c3cc(-c4ccc(-n5cc6ncccc6n5)cc4)sc3C(=O)O)CCN(C)C2)CC1 (stereo not shown) [Example 165, 3-[1-Methyl-5-(4-methyl-cyclohexyl)-1,2,3,6-tetrahydro-pyridin-4-yl]-5-(4-pyrazolo[4,3-b]pyridin-2-yl-phenyl)-thiophene-2-carboxylic acid]",< 3
18,"CCCC#Cc1cc(C2=C(C3CCC(C)CC3)CN(CC)CC2)c(C(=O)O)s1 (stereo not shown) [Example 032, 3-[1-Ethyl-5-(4-methyl-cyclohexyl)-1,2,3,6-tetrahydro-pyridin-4-yl]-5-pent-1-ynyl-thiophene-2-carboxylic acid]",< 3
19,"CC1CCC(C2=C(c3cc(C#CC(C)(C)C)sc3C(=O)O)CN(CC3CCOCC3)CC2)CC1 (stereo not shown) [Example 065, 5-(3,3-Dimethyl-but-1-ynyl)-3-[4-(4-methyl-cyclohexyl)-1-(tetrahydro-pyran-4-ylmethyl)-1,2,5,6-tetrahydro-pyridin-3-yl]-thiophene-2-carboxylic acid]",< 3
20,"CC1CCC(C2=C(c3cc(-c4ccccc4)sc3C(=O)O)CCN(CCCO)C2)CC1 (stereo not shown) [Example 008, 3-[1-(3-Hydroxy-propyl)-5-(4-methyl-cyclohexyl)-1,2,3,6-tetrahydro-pyridin-4-yl]-5-phenyl-thiophene-2-carboxylic acid]",< 3
21,"COCCN1CCC(C2CCC(C)CC2)=C(c2cc(C#CC(C)(C)C)sc2C(=O)O)C1 (stereo not shown) [Example 137, 5-(3,3-Dimethyl-but-1-ynyl)-3-[1-(2-methoxy-ethyl)-4-(4-methyl-cyclohexyl)-1,2,5,6-tetrahydro-pyridin-3-yl]-thiophene-2-carboxylic acid]",> 10
22,"CC1CCC(C2=C(c3cc(-c4ccc(N)cc4)sc3C(=O)O)CCN(C)C2)CC1 (stereo not shown) [Example 004, 5-(4-Amino-phenyl)-3-[1-methyl-5-(4-methyl-cyclohexyl)-1,2,3,6-tetrahydro-pyridin-4-yl]-thiophene-2-carboxylic acid]",< 3
23,"Cc1cnc2cc(-c3ccc(-c4cc(C5=C(C6CCC(C)CC6)CN(C)CC5)c(C(=O)O)s4)cc3)nn2c1 (stereo not shown) [Example 163, 3-[1-Methyl-5-(4-methyl-cyclohexyl)-1,2,3,6-tetrahydro-pyridin-4-yl]-5-[4-(6-methyl-pyrazolo[1,5-a]pyrimidin-2-yl)-phenyl]-thiophene-2-carboxylic acid]",3 to 10
24,"CCOC(=O)c1sc(-c2ccc(NC(=O)c3cscn3)cc2)cc1C1=C(C2CCC(C)CC2)CN(C)CC1 (stereo not shown) [Example 100, 3-[1-Methyl-5-(4-methyl-cyclohexyl)-1,2,3,6-tetrahydro-pyridin-4-yl]-5-{4-[(thiazole-4-carbonyl)-amino]-phenyl}-thiophene-2-carboxylic acid ethyl ester]",> 10
25,"CC1CCC(C2=C(c3cc(-c4ccccc4)sc3C(=O)O)CCN(Cc3ccccn3)C2)CC1 (stereo not shown) [Example 087, 3-[5-(4-Methyl-cyclohexyl)-1-pyridin-2-ylmethyl-1,2,3,6-tetrahydro-pyridin-4-yl]-5-phenyl-thiophene-2-carboxylic acid]",< 3
26,"CC1CCC(C2=C(c3cc(-c4ccccc4)sc3C(=O)O)CCN(Cc3cccnc3)C2)CC1 (stereo not shown) [Example 089, 3-[5-(4-Methyl-cyclohexyl)-1-pyridin-3-ylmethyl-1,2,3,6-tetrahydro-pyridin-4-yl]-5-phenyl-thiophene-2-carboxylic acid]",< 3
27,"CC1CCC(C2=C(c3cc(C#Cc4ccccc4)sc3C(=O)O)CCN(C)C2)CC1 (stereo not shown) [Example 010, 3-[1-Methyl-5-(4-methyl-cyclohexyl)-1,2,3,6-tetrahydro-pyridin-4-yl]-5-phenylethynyl-thiophene-2-carboxylic acid]",> 10
28,"CC1CCC(C2=C(c3cc(-c4ccc(N(C)C(=O)c5cscn5)cc4)sc3C(=O)O)CCN(C)C2)CC1 (stereo not shown) [Example 067, 3-[1-Methyl-5-(4-methyl-cyclohexyl)-1,2,3,6-tetrahydro-pyridin-4-yl]-5-{4-[methyl-(thiazole-4-carbonyl)-amino]-phenyl}-thiophene-2-carboxylic acid]",3 to 10
